Legend:
Conditions in all cases: in vivo
[1] = Drug distribution in nude mouse brain xenografted with human 22Rv1 cells at 8.1 MBq,iv measured after 2 hrs; assay type: ADME, tissue-based, CWR22R
[2] = Drug distribution in nude mouse bone xenografted with human 22Rv1 cells at 8.1 MBq,iv measured after 2 hrs; assay type: ADME, tissue-based, Bone element, CWR22R
[3] = Drug distribution in nude mouse muscle tissue xenografted with human 22Rv1 cells at 8.1 MBq,iv measured after 2 hrs; assay type: ADME, tissue-based, CWR22R
[4] = Drug distribution in nude mouse tumor xenografted with human 22Rv1 cells at 8.1 MBq,iv measured after 2 hrs; assay type: ADME, tissue-based, Neoplasm, CWR22R
[5] = Drug distribution in nude mouse blood xenografted with human 22Rv1 cells at 8.1 MBq,iv measured after 2 hrs; assay type: ADME, tissue-based, CWR22R
[6] = Drug distribution in nude mouse heart xenografted with human 22Rv1 cells at 8.1 MBq,iv measured after 2 hrs in presence of 2-PMPA; assay type: ADME, tissue-based, CWR22R
[7] = Drug distribution in nude mouse liver xenografted with human 22Rv1 cells at 8.1 MBq,iv measured after 2 hrs in presence of 2-PMPA; assay type: ADME, tissue-based, CWR22R
[8] = Drug distribution in nude mouse spleen xenografted with human 22Rv1 cells at 8.1 MBq,iv measured after 2 hrs in presence of 2-PMPA; assay type: ADME, tissue-based, CWR22R
[9] = Drug distribution in nude mouse lung xenografted with human 22Rv1 cells at 8.1 MBq,iv measured after 2 hrs in presence of 2-PMPA; assay type: ADME, tissue-based, CWR22R
[10] = Drug distribution in nude mouse kidney xenografted with human 22Rv1 cells at 8.1 MBq,iv measured after 2 hrs in presence of 2-PMPA; assay type: ADME, tissue-based, CWR22R
[11] = Drug distribution in nude mouse stomach xenografted with human 22Rv1 cells at 8.1 MBq,iv measured after 2 hrs in presence of 2-PMPA; assay type: ADME, tissue-based, CWR22R
[12] = Drug distribution in nude mouse small intestine xenografted with human 22Rv1 cells at 8.1 MBq,iv measured after 2 hrs in presence of 2-PMPA; assay type: ADME, tissue-based, CWR22R
[13] = Drug distribution in nude mouse large intestine xenografted with human 22Rv1 cells at 8.1 MBq,iv measured after 2 hrs in presence of 2-PMPA; assay type: ADME, tissue-based, CWR22R
[14] = Drug distribution in nude mouse gall bladder xenografted with human 22Rv1 cells at 8.1 MBq,iv measured after 2 hrs in presence of 2-PMPA; assay type: ADME, tissue-based, CWR22R
[15] = Drug distribution in nude mouse brain xenografted with human 22Rv1 cells at 8.1 MBq,iv measured after 2 hrs in presence of 2-PMPA; assay type: ADME, tissue-based, CWR22R
[16] = Drug distribution in nude mouse bone xenografted with human 22Rv1 cells at 8.1 MBq,iv measured after 2 hrs in presence of 2-PMPA; assay type: ADME, tissue-based, Bone element, CWR22R
[17] = Drug distribution in nude mouse muscle tissue xenografted with human 22Rv1 cells at 8.1 MBq,iv measured after 2 hrs in presence of 2-PMPA; assay type: ADME, tissue-based, CWR22R
[18] = Drug distribution in nude mouse tumor xenografted with human 22Rv1 cells at 8.1 MBq,iv measured after 2 hrs in presence of 2-PMPA; assay type: ADME, tissue-based, Neoplasm, CWR22R
[19] = Drug distribution in nude mouse blood xenografted with human 22Rv1 cells at 8.1 MBq,iv measured after 2 hrs in presence of 2-PMPA; assay type: ADME, tissue-based, CWR22R
[20] = Drug distribution in nude mouse heart xenografted with human 22Rv1 cells at 8.1 MBq,iv measured after 4 hrs; assay type: ADME, tissue-based, CWR22R
[21] = Drug distribution in nude mouse liver xenografted with human 22Rv1 cells at 8.1 MBq,iv measured after 4 hrs; assay type: ADME, tissue-based, CWR22R
[22] = Drug distribution in nude mouse spleen xenografted with human 22Rv1 cells at 8.1 MBq,iv measured after 4 hrs; assay type: ADME, tissue-based, CWR22R
[23] = Drug distribution in nude mouse lung xenografted with human 22Rv1 cells at 8.1 MBq,iv measured after 4 hrs; assay type: ADME, tissue-based, CWR22R
[24] = Drug distribution in nude mouse kidney xenografted with human 22Rv1 cells at 8.1 MBq,iv measured after 4 hrs; assay type: ADME, tissue-based, CWR22R
[25] = Drug distribution in nude mouse stomach xenografted with human 22Rv1 cells at 8.1 MBq,iv measured after 4 hrs; assay type: ADME, tissue-based, CWR22R
[26] = Drug distribution in nude mouse small intestine xenografted with human 22Rv1 cells at 8.1 MBq,iv measured after 4 hrs; assay type: ADME, tissue-based, CWR22R
[27] = Drug distribution in nude mouse large intestine xenografted with human 22Rv1 cells at 8.1 MBq,iv measured after 4 hrs; assay type: ADME, tissue-based, CWR22R
[28] = Drug distribution in nude mouse gall bladder xenografted with human 22Rv1 cells at 8.1 MBq,iv measured after 4 hrs; assay type: ADME, tissue-based, CWR22R
[29] = Drug distribution in nude mouse brain xenografted with human 22Rv1 cells at 8.1 MBq,iv measured after 4 hrs; assay type: ADME, tissue-based, CWR22R
[30] = Drug distribution in nude mouse bone xenografted with human 22Rv1 cells at 8.1 MBq,iv measured after 4 hrs; assay type: ADME, tissue-based, Bone element, CWR22R
[31] = Drug distribution in nude mouse tumor xenografted with human 22Rv1 cells at 8.1 MBq,iv measured after 4 hrs; assay type: ADME, tissue-based, Neoplasm, CWR22R
[32] = Drug distribution in nude mouse blood xenografted with human 22Rv1 cells at 8.1 MBq,iv measured after 4 hrs; assay type: ADME, tissue-based, CWR22R

Which results are given for COc1cc(C(=O)N[C@@H](CCC(=O)O)C(=O)N[C@@H](CCC(=O)O)C(=O)NCc2ccc(C(=O)N[C@@H](Cc3ccc4ccccc4c3)C(=O)NCCCC[C@H](NC(=O)N[C@@H](CCC(=O)O)C(=O)O)C(=O)O)cc2)ccc1OS(=O)(=O)[18F]?
Drug uptake [1]: 0.1 % ID/g; Drug uptake [2]: 3.79 % ID/g; Drug uptake [3]: 0.45 % ID/g; Drug uptake [4]: 4.54 % ID/g; Drug uptake [5]: 2.95 % ID/g; Drug uptake [6]: 0.85 % ID/g; Drug uptake [7]: 2.4 % ID/g; Drug uptake [8]: 0.83 % ID/g; Drug uptake [9]: 1.58 % ID/g; Drug uptake [10]: 4.33 % ID/g; Drug uptake [11]: 0.57 % ID/g; Drug uptake [12]: 9.02 % ID/g; Drug uptake [13]: 1.1 % ID/g; Drug uptake [14]: 4.39 % ID/g; Drug uptake [15]: 0.08 % ID/g; Drug uptake [16]: 2.49 % ID/g; Drug uptake [17]: 0.46 % ID/g; Drug uptake [18]: 1.82 % ID/g; Drug uptake [19]: 3.86 % ID/g; Drug uptake [20]: 0.31 % ID/g; Drug uptake [21]: 0.79 % ID/g; Drug uptake [22]: 0.97 % ID/g; Drug uptake [23]: 0.52 % ID/g; Drug uptake [24]: 19.91 % ID/g; Drug uptake [25]: 0.44 % ID/g; Drug uptake [26]: 0.79 % ID/g; Drug uptake [27]: 1.34 % ID/g; Drug uptake [28]: 1.39 % ID/g; Drug uptake [29]: 0.02 % ID/g; Drug uptake [30]: 3.76 % ID/g; Drug uptake [31]: 4.47 % ID/g; Drug uptake [32]: 0.8 % ID/g
